For 19 compounds, response vs control in vivo and IC50 results are on record in US20100168079A1 (priority 2008, published 2010).

The subject of one experiment is circulating lymphocytes. The experiment can be described thus: Measurement of Circulating Lymphocytes. The class given is in vivo, Rats (Lewis strain, male). Particulars: Rattus norvegicus, Lymphocyte, read-out: Residual Lymphocyte Counts 14 hours after 30 mg/kg p.o. dosing. On the procedure:
The compounds of formula (I) typically induce the depletion of blood lymphocyte as may be determined in the assay described below. Moreover, compounds of formula (I) are typically efficacious in the said assay also when administered via the per oral route of administration.
Measurement of Circulating Lymphocytes:
The test compounds (or salts thereof) are dissolved in a vehicle such as water, saline, PEG (polyethylene glycol) 200, or PBS (phosphate buffered saline). Rats (Lewis strain, male, 6-12 weeks old) are administered up to 100 mg/kg of the test compounds in 2 ml/kg vehicle via per oral or subcutaneous application. The vehicle or a reference salt and FTY720 (0.3 mg/kg) are included as negative and positive controls, respectively.
Blood is collected from the sublingual vein before and 2, 8 and 24 hours or 14, 18 and 24 hours after the test compound administration under short isoflurane anesthesia. Whole blood samples are subjected to hematology analysis. Peripheral lymphocyte counts are determined using an automated analyzer. The Haemathology System uses a combination of light scatter, cytochemical staining and nuclear density on two independent channels to measure the total and differential white cell counts. Two to four rats are used to assess the lymphocyte depletion activity of each compound screened. The data are presented as mean±SEM.

For a further experiment, the target named is T1, human S1P1 receptors (Homo sapiens, UniProt P21453).
T1 construct: myc (N); expressed in transfected cells; host or cells: HeLa (human cervix carcinoma, ATCC CCL2), HeLa-S1P1/Gα16 cell clone 1
Kind of experiment: Human S1P1 Receptor Calcium FLIPR Antagonist Assay (HeLa Gα16 S1P1). It counts as cell-based. Conditions: relative antagonism of Ca2+ signal evoked by probing agonist GNF-AC-1 at EC80; HeLa-S1P1/Gα16 cells. The essentials: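 HeLa Gα16 cells expressing S1P1 loaded for calcium fluorescence on FLIPR; compounds added in HBSS with 0.1% BSA, then agonist at EC80 20-30 min later. IC50 from (Fmax-Fmin)/Fmin versus log compound concentration.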

[1] abbreviates: male Lewis rats, 14 hours after oral 30 mg/kg, compared to vehicle-only group, mean±SEM.

Read-outs that look alike come from different tables or passages of the source.

T1 sequence (P21453 whole entry): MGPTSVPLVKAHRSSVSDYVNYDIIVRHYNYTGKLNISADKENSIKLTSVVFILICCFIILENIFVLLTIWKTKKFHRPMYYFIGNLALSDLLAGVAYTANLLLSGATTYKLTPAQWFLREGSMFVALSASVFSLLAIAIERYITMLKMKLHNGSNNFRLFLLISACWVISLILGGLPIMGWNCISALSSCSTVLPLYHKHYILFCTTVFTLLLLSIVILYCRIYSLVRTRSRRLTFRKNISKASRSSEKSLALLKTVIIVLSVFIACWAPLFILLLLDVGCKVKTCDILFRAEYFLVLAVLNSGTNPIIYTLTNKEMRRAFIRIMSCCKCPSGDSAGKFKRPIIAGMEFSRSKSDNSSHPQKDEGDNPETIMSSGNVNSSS

For `Cc1cc([C@@H](C)Nc2cccc(-c3cc(C)c(C(=O)N[C@@H](C)C(=O)O)c(C)c3)c2)ccc1Cl` [Example 3, (S)-2-({3′-[(R)-1-(4-Chloro-3-methyl-phenyl)-ethylamino]-3,5-dimethyl-biphenyl-4-carbonyl}-amino)-propionic acid], the response vs control in vivo at 30 mg/kg in the experiment on circulating lymphocytes (po, 14 h) is 15.5%.
In general, IC50 refers to the midpoint of a concentration-inhibition curve. Regarding `CC[C@@H](Nc1cccc(-c2cc(C)c(C(=O)N[C@@H](C)C(=O)O)c(C)c2)c1)c1ccc(Cl)c(C)c1` [Example 6, (S)-2-({3′-[(R)-1-(4-Chloro-3-methyl-phenyl)-propylamino]-3,5-dimethyl-biphenyl-4-carbonyl}-amino)-propionic acid], in the experiment on circulating lymphocytes (setting [1]), the response vs control in vivo at 30 mg/kg worked out at 15.9%. Further, the IC50 at human S1P1 receptors came out at 2 nM.
Taken in the same sequence, the figures for `Cc1cc(C(C)Nc2cccc(-c3cc(C)c(C(=O)NC4(C(=O)O)CC4)c(C)c3)c2)ccc1Cl` (stereo not drawn) [Example 7, 1-({3′-[1-(4-Chloro-3-methyl-phenyl)-ethylamino]-3,5-dimethyl-biphenyl-4-carbonyl}-amino)-cyclopropanecarboxylic acid] were 14.8% and 2 nM.
On to `Cc1cc([C@@H](C)Nc2cccc(-c3cc(C)c(C(=O)NC4(C(=O)O)CC4)c(C)c3)c2)ccc1Cl` [Example 8, 1-({3′-[(R)-1-(4-Chloro-3-methyl-phenyl)-ethylamino]-3,5-dimethyl-biphenyl-4-carbonyl}-amino)-cyclopropanecarboxylic acid], for which the response vs control in vivo at 30 mg/kg with circulating lymphocytes (setting [1]) was 16.7%. Also, the IC50 on human S1P1 receptors is 2 nM.
Take `CCC(Nc1cccc(-c2cc(C)c(C(=O)N[C@@H](C)C(=O)O)c(C)c2)c1)c1ccc(Cl)c(Cl)c1` (stereo partly drawn) [Example 20, (S)-2-({3′-[1-(3,4-Dichloro-phenyl)-propylamino]-3,5-dimethyl-biphenyl-4-carbonyl}-amino)-propionic acid]: the response vs control in vivo at 30 mg/kg in the experiment on circulating lymphocytes (setting [1]) worked out at 18.7%. The IC50 on human S1P1 receptors is 8 nM.
Taken in the same sequence, the figures for `Cc1cc(C(C)Nc2ccc(F)c(-c3cc(C)c(C(=O)N[C@@H](C)C(=O)O)c(C)c3)c2)ccc1Cl` (stereo partly drawn) [Example 22, (S)-2-({5′-[1-(4-Chloro-3-methyl-phenyl)-ethylamino]-2′-fluoro-3,5-dimethyl-biphenyl-4-carbonyl}-amino)-propionic acid] were 18.7% and 2 nM.
Taken in the same sequence, the figures for `Cc1cc([C@@H](C)Nc2ccc(F)c(-c3cc(C)c(C(=O)N[C@@H](C)C(=O)O)c(C)c3)c2)ccc1Cl` [Example 23, (S)-2-({5′-[(R)-1-(4-Chloro-3-methyl-phenyl)-ethylamino]-2′-fluoro-3,5-dimethyl-biphenyl-4-carbonyl}-amino)-propionic acid] were 17.4% and 1 nM.
On to `CCC(Nc1ccc(F)c(-c2cc(C)c(C(=O)N[C@@H](C)C(=O)O)c(C)c2)c1)c1ccc(Cl)c(C)c1` (stereo partly drawn) [Example 24, (S)-2-({5′-[1-(4-Chloro-3-methyl-phenyl)-propylamino]-2′-fluoro-3,5-dimethyl-biphenyl-4-carbonyl}-amino)-propionic acid], for which, in the experiment on circulating lymphocytes (setting [1]), the response vs control in vivo at 30 mg/kg was determined as 16.8%. For the same compound, the IC50 on human S1P1 receptors was determined as 1 nM.
Taken in the same sequence, the figures for `CCC(Nc1ccc(F)c(-c2cc(C)c(C(=O)NC3(C(=O)O)CC3)c(C)c2)c1)c1ccc(Cl)c(C)c1` (stereo not drawn) [Example 25, 1-({5′-[1-(4-Chloro-3-methyl-phenyl)-propylamino]-2′-fluoro-3,5-dimethyl-biphenyl-4-carbonyl}-amino)-cyclopropanecarboxylic acid] were 15% and 2 nM.
In the same order, the values of `Cc1cc(C(C)Nc2ccc(F)c(-c3cc(C)c(C(=O)NC4(C(=O)O)CC4)c(C)c3)c2)ccc1Cl` (stereo not drawn) [Example 26, 1-({5′-[1-(4-Chloro-3-methyl-phenyl)-ethylamino]-2′-fluoro-3,5-dimethyl-biphenyl-4-carbonyl}-amino)-cyclopropanecarboxylic acid] are 12.9% and 1 nM.
In the same order, the values of `Cc1cc([C@@H](C)Nc2cccc(-c3cc(C)c(C(=O)N(C)[C@@H](C)C(=O)O)c(C)c3)c2)ccc1Cl` [Example 73] are 16.6% and 4 nM.
Regarding `Cc1cc(C(Nc2cccc(-c3cc(C)c(C(=O)N[C@@H](C)C(=O)O)c(C)c3)c2)C(F)(F)F)ccc1Cl` (stereo partly drawn) [Example 74, (S)-2-({3′-[1-(4-Chloro-3-methyl-phenyl)-2,2,2-trifluoro-ethylamino]-3,5-dimethyl-biphenyl-4-carbonyl}-amino)-propionic acid], in the experiment with circulating lymphocytes (setting [1]), the response vs control in vivo at 30 mg/kg is 15.5%. The IC50 at human S1P1 receptors was 8 nM.
`CC[C@H](c1ccc(Cl)c(C)c1)N(C)c1cccc(-c2cc(C)c(C(=O)N[C@@H](C)C(=O)O)c(C)c2)c1` [Example 104, (S)-2-[(3′-{[(R)-1-(4-Chloro-3-methyl-phenyl)-propyl]-methyl-amino}-3,5-dimethyl-biphenyl-4-carbonyl)-amino]-propionic acid]: the IC50 on human S1P1 receptors came to 1 nM.
In the case of `CC[C@@H](Nc1cccc(-c2cc(C)c(C(=O)N(C)[C@@H](C)C(=O)O)c(C)c2)c1)c1ccc(Cl)c(C)c1` [Example 107, (S)-2-({3′-[(R)-1-(4-Chloro-3-methyl-phenyl)-propylamino]-3,5-dimethyl-biphenyl-4-carbonyl}-methyl-amino)-propionic acid], the IC50 at human S1P1 receptors amounted to 1 nM.
For `CC[C@H](c1ccc(Cl)c(C)c1)N(C)c1cccc(-c2cc(C)c(C(=O)N(C)C3(C(=O)O)CC3)c(C)c2)c1` [Example 110, 1-[(3′-{[(R)-1-(4-Chloro-3-methyl-phenyl)-propyl]-methyl-amino}-3,5-dimethyl-biphenyl-4-carbonyl)-methyl-amino]-cyclopropanecarboxylic acid], the IC50 at human S1P1 receptors is 35 nM.
Same read-out and setting: as for `CC[C@@H](Nc1cccc(-c2cc(C)c(C(=O)N(C)C3(C(=O)O)CC3)c(C)c2)c1)c1ccc(Cl)c(C)c1` [Example 111, 1-({3′-[(R)-1-(4-Chloro-3-methyl-phenyl)-propylamino]-3,5-dimethyl-biphenyl-4-carbonyl}-methyl-amino)-cyclopropanecarboxylic acid], the figure is 8 nM; as for `Cc1cc([C@@H](C)Nc2cccc(-c3cc(C)c(C(=O)N[C@@H](CN)C(=O)O)c(C)c3)c2)ccc1Cl` [Example 114, (S)-3-Amino-2-({3′-[(R)-1-(4-chloro-3-methyl-phenyl)-ethylamino]-3,5-dimethyl-biphenyl-4-carbonyl}-amino)-propionic acid], 1 nM.
With `CC[C@H](c1ccc(Cl)c(C)c1)N(C)c1ccc(F)c(-c2cc(C)c(C(=O)N[C@@H](C)C(=O)O)c(C)c2)c1` [Example 116, (S)-2-[(5′-{[(R)-1-(4-Chloro-3-methyl-phenyl)-propyl]-methyl-amino}-2′-fluoro-3,5-dimethyl-biphenyl-4-carbonyl)-amino]-propionic acid], the IC50 on human S1P1 receptors worked out at 2 nM.
Same read-out and setting: under `CC[C@H](c1ccc(Cl)c(C)c1)N(C)c1ccc(F)c(-c2cc(C)c(C(=O)N(C)[C@@H](C)C(=O)O)c(C)c2)c1` [Example 118, (S)-2-[(5′-{[(R)-1-(4-Chloro-3-methyl-phenyl)-propyl]-methyl-amino}-2′-fluoro-3,5-dimethyl-biphenyl-4-carbonyl)-methyl-amino]-propionic acid] stands 4 nM.
